Assay results reported in publication PMC10244169, “Psychedelics promote plasticity by directly binding to BDNF receptor TrkB” (Nature Neuroscience, 2023).

Tests used:
TrkB [1] = target: T1, TrkB (Rattus norvegicus, UniProt Q63604); assay: biochemical; format: binding; conditions: for displacement of ^3H-LSD from TrkB: 1 nM to 10 µM of drug; for K (one phase exponential decay, best-fit) / Plateau (one phase exponential decay, best-fit) / Span (one phase exponential decay, best-fit): ext fig 1h
T1 construct: expressed in transfected cells; host or cells: HEK293T

TrkB [2] = target: T1, TrkB; assay: Competition binding with biotinylated R,R-HNK
Procedure: Binding assays were performed as previously described with minor modifications. […] Samples from mouse embryo (E18) brains were also lysed, vortexed, sonicated and centrifuged for binding assays. Plates were then washed with PBS. […] For the competition binding assays with biotinylated R,R-HNK, the amino-biotinylation of R,R-HNK was performed using a commercial kit (Thermo Scientific, EZ-Link NHS-PEG4 Biotinylation Kit, 21455) and the reaction monitored by MS. A mixture of biotinylated R,R-HNK (10 µM) and unlabeled compounds (1 pM to 10 µM) in PBS was added to the 96-well plates containing the immunoprecipitated TrkB and incubated for 1 h at room temperature. […] Luminescence was determined via streptavidin conjugated with horseradish peroxidase (HRP; Thermo Fisher Scientific, 21126; 1:5,000, 1 h at room temperature) in reaction with the Pierce ECL substrate (Thermo Fisher Scientific, 32106). Luminescence from blank wells that contained all reagents but the sample lysates was used to determine nonspecific binding. To obtain the binding curves, results from binding assays were fitted to the equation of specific binding with Hill slope from GraphPad Prism 9.2. To calculate koff values, results were fitted to the equation of dissociation of one phase exponential decay from GraphPad Prism 9.2.

TrkB (WT) dimerization = target: T2, TrkB (WT) dimerization (Rattus norvegicus, UniProt Q63604); assay: Split-luciferase PCA of TrkB dimerization in N2a cells; format: cell-based; conditions: ketanserin 100 nM, M100907 100 nM or TrkB.FC 200 ng ml^−1, 10 min before
T2 construct: expressed in transfected cells; host or cells: N2a
Procedure: Ketanserin, M100907 and TRKB.FC were added to the media 10 min before treatment. The PCA method was performed as previously described[11],[75],[76]. Split humanized Gaussia princeps luciferase (hGLuc) was cloned on the C-terminus of the reporter proteins TrkB (WT and Y433F) and lipid raft Fyn. If the reporter proteins that carry complementary halves of the luciferase interact, the enzyme can refold in its functional conformation and, upon addition of its substrate, produce luminescence proportionally to the amount of reporter proteins interacting at a given time. N2a cells were seeded in 96-well plates with opaque walls and transparent bottom (PerkinElmer, ViewPlate 96). Cells were transfected with Lipofectamine 2000 according to the manufacturer’s instructions 24 h post-plating with the PCA pair plasmids: phGLuc(1C)-TrkB(WT) or the mutant phGLuc(1C)-TrkB(Y433F) and phGLuc(2 C)-TrkB(WT) for the dimerization experiments; phGLuc(1C)-lipid raft Fyn and phGLuc(2C)-TrkB(WT) or phGLuc(2C)-TrkB(Y433F) for the lipid raft localization experiments. Forty-eight hours post transfection, cells were treated (40 min, 37 °C) in phenol red-free Dulbecco’s modified Eagle medium without serum. […] The PCA signal was detected with the substrate for the luciferase, native coelenterazine, which was injected into each well directly in the plate reader at a final concentration of […].

[3] = tested on: dendritic arbor complexity of neuronal cultures; design: method as in PMID 29898390; conditions: cultured neurons; cited from earlier work
TrkB [4] = assay: Western blot of TrkB protein expression in N2a cells; format: cell-based; conditions: WT and Y433F^+/−
Procedure: In a separate set of experiments to examine the effect of 5-HT2A activation, M100907 (100 nM) was administered as a 10 min pretreatment and remained in the medium for the rest of the experiment. Next, cells were lysed and centrifuged. […] The co-immunoprecipitation was carried out as previously described[11],[23],[24] with minor modifications. Briefly, Magnetic Dynabeads Protein G (Invitrogen, 10004D) were coated with anti-TrkB antibody (R&D Systems, AF1494) at 200 ng of antibody per 1 µl of beads in rotation (2 h, 4 °C). Finally, lysates were mixed with the coated beads (100 µg of total protein per 15 µl of beads) and incubated in rotation (overnight, 4 °C).
Proteins were separated according to their molecular weight by SDS–PAGE and transferred to a polyvinylidene fluoride membrane. Membranes were incubated with the following primary antibodies (all 1:1,000 in 3% BSA in TBS-T, overnight, 4 °C): anti-TrkB (R&D Systems, AF1494), anti-β-actin (Sigma-Aldrich, A1978), anti-phospho-mTOR (Cell Signaling Technology, 5536S), anti-phospho-p44/42 MAPK (Erk1/2) (Cell Signaling Technology, 9106S), anti-mTOR (Cell Signaling Technology, 2972S) and anti-p44/42 MAPK (Erk1/2) (Cell Signaling Technology, 9102S). […] Protein bands were visualized using enhanced chemiluminescent substrate (Thermo Scientific, 32132, ECL Plus) and imaged with a charge-coupled device camera (G:BOX, Syngene).

[5] = tested on: dendritic arbor complexity of neuronal cultures; assay: Dendritogenesis (Sholl analysis) in neuronal cultures (WT and Y433F^+/−); format: cell-based, mouse; conditions: for e6e group mean (dendritogenesis, Sholl analysis): BDNF; for e6e Mean Diff. (Veh. minus BDNF): uncorrected Fisher's LSD
Procedure: In a separate set of experiments to study the effects of extracellular BDNF and 5-HT2A activation, cultures were also pretreated for 10 min with TrkB.FC (200 ng ml^−1) or M100907 (100 nM), respectively. Similar to treatment with the psychedelics, TrkB.FC and M100907 pretreatments were administered in cumulative doses and remained in the medium for the rest of the experiment. At DIV7, neurons were pre-incubated for 1 h with […] MgCl2 to prevent excitotoxicity, then neurons were transfected for the heterologous expression of mCherry. To minimize any possible interference of the transfection protocol upon the drug effect, transfection was done in the morning while treatment with psychedelics was always added in the evening. Twenty-four hours after transfection, neurons were fixed with 4% PFA for 20 min at room temperature, washed in PBS-T, blocked for 30 min with 3% BSA in PBS-T and incubated with chicken anti-MAP2 (Abcam, ab5392; 1:5,000, 1 h, room temperature). Then, coverslips were washed in PBS-T and incubated with Alexa Fluor 647-conjugated antibody goat anti-chicken (Invitrogen, A-21449; 1:1,000, 1 h, room temperature). Next, coverslips were washed in PBS-T and MilliQ water, and mounted in Dako fluorescence mounting medium (Agilent, S302380-2). Ten optical sections with a Z-step of 1.3 μm were acquired using a Zeiss LSM 710 confocal microscope with a LCI Plan/Neofluar 25×/0.8 lmm Korr DIC M27 objective. In the mCherry channel, the center of the soma was manually assigned and the number of dendritic intersections at fixed distances (every 5 μm) from the soma was automatically counted using the Sholl analysis plugin of ImageJ.

[6] = Supplementary Table 3 legend; source not stated; cited from earlier work
[7] = target: the molecule itself; assay: NMR titration; 1H,15N-HSQC spectra of TrkB TMD in DMPC/DHPC bicelles at various lipid-to-protein ratios, 40 °C, pH 6.0; monomer to dimer
[8] = ext fig 1f, competition curve, n=5

T1 sequence (Q63604 32-821): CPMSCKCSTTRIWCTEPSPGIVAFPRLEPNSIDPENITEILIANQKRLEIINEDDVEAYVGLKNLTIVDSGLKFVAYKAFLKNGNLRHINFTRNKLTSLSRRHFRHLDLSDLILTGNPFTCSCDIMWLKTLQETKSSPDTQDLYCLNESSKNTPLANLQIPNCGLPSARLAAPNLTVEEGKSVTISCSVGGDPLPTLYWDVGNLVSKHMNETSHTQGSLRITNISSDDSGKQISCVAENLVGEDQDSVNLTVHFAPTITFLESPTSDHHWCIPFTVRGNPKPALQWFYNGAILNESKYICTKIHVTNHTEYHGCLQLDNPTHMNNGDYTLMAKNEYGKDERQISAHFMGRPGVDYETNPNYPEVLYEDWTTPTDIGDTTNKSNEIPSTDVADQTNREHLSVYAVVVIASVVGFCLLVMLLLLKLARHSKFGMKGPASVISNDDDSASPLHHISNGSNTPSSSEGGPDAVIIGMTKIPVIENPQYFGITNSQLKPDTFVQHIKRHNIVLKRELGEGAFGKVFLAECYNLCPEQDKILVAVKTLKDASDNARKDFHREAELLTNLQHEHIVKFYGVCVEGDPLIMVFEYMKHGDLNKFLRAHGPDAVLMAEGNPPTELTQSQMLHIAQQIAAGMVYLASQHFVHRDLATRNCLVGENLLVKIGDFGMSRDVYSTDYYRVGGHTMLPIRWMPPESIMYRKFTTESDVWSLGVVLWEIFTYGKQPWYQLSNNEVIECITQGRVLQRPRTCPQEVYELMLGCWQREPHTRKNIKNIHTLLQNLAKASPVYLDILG
T2 sequence (Q63604 32-821): as above
T2 sequence (Q63604 32-821): as above

O=C(c1ccc(F)cc1)C1CCN(CCn2c(=O)[nH]c3ccccc3c2=O)CC1 [ketanserin, ketanserin (+)-tartrate]
displacement of ^3H-LSD from TrkB (TrkB [1]): fail to displace LSD binding to TrkB
Fit status, specific binding with Hill slope (TrkB [1]; ext fig 1f): Ambiguous
Bmax (specific binding with Hill slope, best-fit) (TrkB [1]; [8]): 96.24
h (Hill slope, best-fit) (TrkB [1]; [8]): ~ 0.3927
displacement of biotinylated R,R-HNK from TrkB (TrkB [2]; biotinylated R,R-HNK 10 µM): not ketanserin, displace R,R-HNK binding to TrkB
K (one phase decay, best-fit) (TrkB [2]; ext fig 1g): 1491612413
Plateau (one phase decay, best-fit) (TrkB [2]; ext fig 1g): 97.9
Span (one phase decay, best-fit) (TrkB [2]; ext fig 1g): 2.855
Tau (one phase decay, best-fit) (TrkB [2]; ext fig 1g): 6.70E-10
Y0 (one phase decay, best-fit) (TrkB [2]; ext fig 1g): 100.8
effect of pretreatment on LSD- and BDNF-induced TrkB dimerization (TrkB (WT) dimerization): fails to prevent the effects of LSD and BDNF on TrkB dimerization
effect on LSD effects on dendritic arbor complexity [3]: prevent the effects of LSD on dendritic arbor complexity

BDNF: Brain-derived neurotrophic factor
total TrkB expression (TrkB [4]): No differences in total TrkB expression
e6f Sholl profile, mean ([5]; WT + BDNF, distance from soma 10 µm): 6.929
e6f Sholl profile, mean ([5]; WT + BDNF, distance from soma 15 µm): 9.643
e6f Sholl profile, mean ([5]; WT + BDNF, distance from soma 20 µm): 7.929
e6f Sholl profile, mean ([5]; WT + BDNF, distance from soma 25 µm): 7.929
e6f Sholl profile, mean ([5]; WT + BDNF, distance from soma 30 µm): 6
e6f Sholl profile, mean ([5]; WT + BDNF, distance from soma 35 µm): 4.5
e6f Sholl profile, mean ([5]; WT + BDNF, distance from soma 40 µm): 3.857
e6f Sholl profile, mean ([5]; WT + BDNF, distance from soma 45 µm): 3.571
e6f Sholl profile, mean ([5]; WT + BDNF, distance from soma 50 µm): 2.714
e6f Sholl profile, mean ([5]; WT + BDNF, distance from soma 55 µm): 2.429
e6f Sholl profile, mean ([5]; WT + BDNF, distance from soma 60 µm): 2.786
e6f Sholl profile, mean ([5]; WT + BDNF, distance from soma 65 µm): 2.643
e6f Sholl profile, mean ([5]; WT + BDNF, distance from soma 70 µm): 3.143
e6f Sholl profile, mean ([5]; WT + BDNF, distance from soma 75 µm): 2.929
e6f Sholl profile, mean ([5]; WT + BDNF, distance from soma 80 µm): 2.714
e6f Sholl profile, mean ([5]; WT + BDNF, distance from soma 85 µm): 2.786
e6f Sholl profile, mean ([5]; WT + BDNF, distance from soma 90 µm): 2.286
e6f Sholl profile, mean ([5]; WT + BDNF, distance from soma 95 µm): 1.857
e6f Sholl profile, mean ([5]; WT + BDNF, distance from soma 100 µm): 1.857
e6e group mean (dendritogenesis, Sholl analysis) ([5]; WT neuronal cultures, n=14): 78.5
e6e Mean Diff. (Veh. minus BDNF) ([5]; WT:Veh. vs. WT:BDNF): -30.1
e6f Sholl profile, mean ([5]; Y433F+/- + BDNF, distance from soma 10 µm): 8.0625
e6f Sholl profile, mean ([5]; Y433F+/- + BDNF, distance from soma 15 µm): 9.4375
e6f Sholl profile, mean ([5]; Y433F+/- + BDNF, distance from soma 20 µm): 10.25
e6f Sholl profile, mean ([5]; Y433F+/- + BDNF, distance from soma 25 µm): 8.8125
e6f Sholl profile, mean ([5]; Y433F+/- + BDNF, distance from soma 30 µm): 8.1875
e6f Sholl profile, mean ([5]; Y433F+/- + BDNF, distance from soma 35 µm): 6.3125
e6f Sholl profile, mean ([5]; Y433F+/- + BDNF, distance from soma 40 µm): 5.375
e6f Sholl profile, mean ([5]; Y433F+/- + BDNF, distance from soma 45 µm): 5.1875
e6f Sholl profile, mean ([5]; Y433F+/- + BDNF, distance from soma 50 µm): 3.9375
e6f Sholl profile, mean ([5]; Y433F+/- + BDNF, distance from soma 55 µm): 3.6875
e6f Sholl profile, mean ([5]; Y433F+/- + BDNF, distance from soma 60 µm): 3.25
e6f Sholl profile, mean ([5]; Y433F+/- + BDNF, distance from soma 65 µm): 2.5625
e6f Sholl profile, mean ([5]; Y433F+/- + BDNF, distance from soma 70 µm): 2.5
e6f Sholl profile, mean ([5]; Y433F+/- + BDNF, distance from soma 75 µm): 1.875
e6f Sholl profile, mean ([5]; Y433F+/- + BDNF, distance from soma 80 µm): 2
e6f Sholl profile, mean ([5]; Y433F+/- + BDNF, distance from soma 85 µm): 1.625
e6f Sholl profile, mean ([5]; Y433F+/- + BDNF, distance from soma 90 µm): 1.4375
e6f Sholl profile, mean ([5]; Y433F+/- + BDNF, distance from soma 95 µm): 1.75
e6f Sholl profile, mean ([5]; Y433F+/- + BDNF, distance from soma 100 µm): 1.3125
e6e group mean (dendritogenesis, Sholl analysis) ([5]; Y433F+/- neuronal cultures, n=16): 87.56
e6e Mean Diff. (Veh. minus BDNF) ([5]; Y433F+/-:Veh. vs. Y433F+/-:BDNF): -34.03
dendritic arbor complexity ([5]; cultures from WT mice): increases dendritic arbor complexity
dendritic arbor complexity ([5]; cultures from Y433F^+/− mice): increased dendritic arbor complexity

C=CCN1C[C@H](C(=O)N(CCCN(C)C)C(=O)NCC)C[C@@H]2c3cccc4[nH]cc(c34)C[C@H]21 [cabergoline]
displacement of ^3H-LSD from TrkB (TrkB [1]): fail to displace ^3H-LSD
K (one phase exponential decay, best-fit) (TrkB [1]): 776405
Plateau (one phase exponential decay, best-fit) (TrkB [1]): 113.3
Span (one phase exponential decay, best-fit) (TrkB [1]): -10.49
pKa [6]: 6.22

CN1C[C@H](C(=O)N[C@]2(C)O[C@@]3(O)[C@@H]4CCCN4C(=O)[C@H](Cc4ccccc4)N3C2=O)C[C@@H]2c3cccc4[nH]cc(c34)C[C@H]21 [dihydroergotamine]
displacement of ^3H-LSD from TrkB (TrkB [1]): fail to displace ^3H-LSD
K (one phase exponential decay, best-fit) (TrkB [1]): 5.40E+07
Plateau (one phase exponential decay, best-fit) (TrkB [1]): 93.57
Span (one phase exponential decay, best-fit) (TrkB [1]): 15.09
pKa [6]: 6.75

B1: TrkB TMD (transmembrane residues of human TrkB, T423-G466) (domain or fragment, UniProt Q16620 423-466, looked up)
chain: TDKTGREHLSVYAVVVIASVVGFCLLVMLFLLKLARHSKFGMKG
notes: human TrkB, transmembrane residues T423-G466, UniProt Q16620; 15N- or 15N,13C-labelled; Cloned by NdeI and HindIII into pGEMEX1
binding result [7]: binds
